Assay results as given in PMC4674796, “Only a minority of broad-range detoxification genes respond to a variety of phytotoxins in generalist Bemisia tabaci species” (Scientific Reports, 2015).

Molecular target: T1, BtGST2 (Bemisia tabaci, UniProt A0A9P0F9D9)
T1 construct: gene BEMITA_LOCUS12014
T1 sequence (A0A9P0F9D9 1-204): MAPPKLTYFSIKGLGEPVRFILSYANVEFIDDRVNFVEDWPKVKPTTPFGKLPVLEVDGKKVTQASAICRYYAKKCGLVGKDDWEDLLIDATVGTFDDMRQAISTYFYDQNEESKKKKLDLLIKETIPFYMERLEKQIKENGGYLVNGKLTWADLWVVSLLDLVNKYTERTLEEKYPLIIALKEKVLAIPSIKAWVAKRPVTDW
Assay: GSH/CDNB conjugation, absorbance at […] nm, Michaelis-Menten fit
Assay type: biochemical
Conditions: co-substrate GSH 2.75 mM, CDNB 0.06-3 mM; 0.1 M potassium phosphate pH 6.5, 25 °C

| SMILES | Km [µM] |
| --- | --- |
| O=[N+]([O-])c1ccc(Cl)c([N+](=O)[O-])c1 [CDNB, 1-Chloro-2,4-dinitrobenzene] | 710 ± 160 |

Molecular target: T1, BtGST2
Assay: inhibition of CDNB/GSH conjugation, absorbance at […] nm
Assay type: biochemical
Conditions: read-out: % inhibition at 0.5 mM

| SMILES | inhibition at 500 µM [%] |
| --- | --- |
| C=CCN=C=S [AITC] | 40.9 ± 5.08 |
| OCc1c[nH]c2ccccc12 [I3C] | 20.9 ± 7.99 |
| O=c1cc(-c2ccccc2)oc2ccccc12 [Flavone, 2-phenyl chromone] | 67.3 ± 8.65 |
| CN1CCC[C@H]1c1cccnc1 [Nicotine] | 6.64 ± 3.68 |
| O=c1c(O)c(-c2ccc(O)c(O)c2)oc2cc(O)cc(O)c12 [Quercetin hydrate] | 97.6 ± 2.43 |
